The source of these data is paper PMC8199339, “Propellanes as Rigid Scaffolds for the Stereodefined Attachment of σ-Pharmacophoric Structural Elements to Achieve σ Affinity” (International Journal of Molecular Sciences, 2021).

Read-outs that look alike come from different tables or passages of the source.

The target in data set [1] is σ2 receptor. The conditions noted are these: cited from earlier work; for Ki: Figure 2.
Data set [2] concerns the target σ1 receptor. The following applies: cited from earlier work; for Ki: Figure 2.
For data set [3], the target named is T1, σ1 receptor (Cavia porcellus, UniProt Q60492).
T1 construct: thawed membrane preparation of guinea pig brain; tissue Harlan-Winkelmann, Borchen, Germany (animal organs); host or cells: guinea pig brain membrane homogenate
The conditions noted are these: cited from earlier work.

The target in data set [4] is T2, σ2 receptor (Rattus norvegicus, UniProt Q5U3Y7).
T2 construct: The thawed rat liver membrane preparation; tissue Harlan-Winkelmann, Borchen, Germany (animal organs); host or cells: rat liver membrane homogenate
T2 sequence (Q5U3Y7 1-176): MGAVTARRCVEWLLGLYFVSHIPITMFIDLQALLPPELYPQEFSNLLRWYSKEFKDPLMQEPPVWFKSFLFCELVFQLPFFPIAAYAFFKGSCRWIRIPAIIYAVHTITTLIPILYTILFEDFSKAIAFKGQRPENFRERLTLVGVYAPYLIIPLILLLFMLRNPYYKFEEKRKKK
The conditions noted are these: cited from earlier work; for inhibition of the radioligand binding, σ2: test compound concentration of 1 µM, already reported, 1 µM.

Data set [5] concerns the target T1, σ1 receptor. Description: σ1 receptor binding assay, radioligand [3H]-(+)-pentazocine, guinea pig brain membrane preparation. The conditions noted are these: for inhibition at 1 µM / inhibition of the radioligand binding, σ1: test compound concentration of 1 µM; for inhibition of the radioligand binding, σ1: 1 µM.
The target in data set [6] is T2, σ2 receptor. Description: σ2 receptor binding assay, radioligand [3H]di-o-tolylguanidine, rat liver membrane preparation.
The mark [7] stands for this setting: azapropellanes 9, already reported.
Setting [8] is: test compound concentration of 1 µM.
Setting [9] is: [3H]-(+)-pentazocine, guinea pig brain, mean of three experiments (± SEM), values without SEM mean of two, read-out: Ki (nM) σ1.

T1 sequence (Q60492 whole entry): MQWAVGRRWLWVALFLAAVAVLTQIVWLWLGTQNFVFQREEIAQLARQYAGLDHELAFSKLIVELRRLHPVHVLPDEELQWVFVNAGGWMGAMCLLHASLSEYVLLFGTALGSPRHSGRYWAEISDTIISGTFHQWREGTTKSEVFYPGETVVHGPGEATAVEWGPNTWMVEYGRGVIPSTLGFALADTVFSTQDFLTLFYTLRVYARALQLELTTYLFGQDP

As a reminder, the Ki is the equilibrium dissociation constant of an inhibitor or competing ligand from its target. For `COc1ccc(C)cc1NC(=O)OC1CC2CCCC(C1)N2Cc1ccccc1` (centres unmarked) [compound 3], the figures for the Ki at σ2 receptor [1] and on σ1 receptor [2] were 3.1 nM and 92.5 nM, respectively. Moreover, in the data set with σ2 receptor [1] (σ2 over σ1), the “preference for the σ2 receptor” value was 30 fold.

For the molecule `COc1ccc(C)cc1NC(=O)OC1CC23CCCCC2(C1)CN(Cc1ccccc1)CC3` (stereo not drawn) [syn-5], at σ1 receptor [3] (test compound concentration of 1 µM, already reported), the “inhibition of the radioligand binding, σ1” value (“inhibition … σ1” for short) is listed as 12%. For the same molecule, the “inhibition of the radioligand binding, σ2” value (“inhibition … σ2” below) at σ2 receptor [4] was 0%.

For the molecule `c1ccc(CN2CC34CCCCC3(CCC4)C2)cc1` (centres unmarked) [9a], on σ1 receptor [5] (σ1 over σ2), the “selectivity for the σ1 receptor over the σ2 receptor” value is “at least 10 fold”. Further, the Ki at σ1 receptor [3] (setting [7]) was 17 ± 12 nM; on σ2 receptor [4] (setting [7]) it was 190 nM.

What is called inhibition is the drop in the measured response relative to a control, in per cent. A lower inhibition goes with a response near the control. The term melting point denotes the temperature, or range, at which the solid turns liquid. `OC1CC23CCCCC2(C1)CC(NCc1ccccc1)C3` (mixture of isomers) [11-anti-13, [(8-anti-11-anti and 8-anti-11-syn)-11-(Benzylamino)[4.3.3]propellan-8-ol] registered a melting point of 121 to 123 °C. In addition, on σ2 receptor [6] (read-out: Ki (nM) σ2), the Ki came to 1070 nM. On σ1 receptor [5], at 1 µM the inhibition was 29%.

With `O=C(Nc1ccccc1)NC1CC23CCCCC2(CCC3)C1` (stereo not drawn) [23a, 1 -Phenyl-3-(syn- and anti-[4.3.3]propellan-8-yl)urea], the melting point was 134 to 138 °C. The molecule also showed an inhibition at 1 µM on σ2 receptor [6] (setting [8]) of 15%. The inhibition at 1 µM on σ1 receptor [5] came to 0%.

For the molecule `CN(C)c1ccc(CNC2CC34CCCCC3(CCC4)C2)cc1` (stereo not drawn) [compound 17, syn- and anti-N-(4-(Dimethylaminobenzyl)-[4.3.3]propellan-8-amine], the melting point was in the range of 89 to 91 °C. The same molecule showed an inhibition at 1 µM at σ2 receptor [6] (setting [8]) of 1%. For the same molecule, the Ki on σ1 receptor [5] (setting [9]) came to 1200 nM.

The molecule `O=C(NC1CCCCC1)NC1CC23CCCCC2(CCC3)C1` (stereo not drawn) [23b, 1 -Cyclohexyl-3-(syn- and anti-[4.3.3]propellan-8-yl)urea] showed a melting point of 187 to 193 °C. The molecule further displayed an inhibition at 1 µM on σ2 receptor [6] (setting [8]) of 0%. This molecule yielded an inhibition at 1 µM on σ1 receptor [5] of 0%.

The molecule `COc1ccc(C)cc1NC(=O)N(Cc1ccccc1)C1CC23CCCCC2(CC(=O)C3)C1` (stereo not drawn) [anti-21, 1 -Benzyl-3-(2-methoxy-5-methylphenyl)-1-(anti-11-oxo-[4.3.3]propellan-8-yl)urea] gave a melting point of 133 to 136 °C. Moreover, the “inhibition … σ2” value at σ2 receptor [6] (test compound concentration of 1 µM, 1 µM) turned out to be 12%. At σ1 receptor [5], the “inhibition … σ1” value was 5%.

For the molecule `C1CCC(CNC2CC34CCCCC3(CCC4)C2)CC1` (stereo not drawn) [compound 18, syn- and anti-N-Cyclohexylmethyl[4.3.3]propellan-8-amine], the melting point was in the range of 108 to 111 °C. Further, the Ki at σ2 receptor [6] (read-out: Ki (nM) σ2) turned out to be 101 nM. At σ1 receptor [5] (Ki (nM) σ1), this molecule yielded an inhibition constant (Ki) of 34 ± 11 nM.

Take `O=C(Nc1ccc(F)c(F)c1)NC1CC23CCCCC2(CCC3)C1` (stereo not drawn) [23d, 1-(3,4-Difluorophenyl)-3-(syn- and anti-[4.3.3]propellan-8-yl)urea]: the melting point lay in the range of 168 to 175 °C. The inhibition at 1 µM on σ2 receptor [6] (setting [8]) stood at 0%. Also, 1 µM produced 0% inhibition on σ1 receptor [5].

Take `O=C(Nc1ccc(F)c(F)c1)NC1CC23CCCCC2(CC(O)C3)C1` (mixture of isomers) [8-syn-26, 1-(3,4-Difluorophenyl)-3-(8-syn-11-syn- and 8-syn-11-anti-11-hydroxy[4.3.3]-propellan-8-yl)urea]: the melting point is 171 to 178 °C. This molecule had an inhibition at 1 µM on σ2 receptor [6] (setting [8]) of 0%. Also, the inhibition at 1 µM on σ1 receptor [5] turned out to be 10%.

`COc1ccc(C)cc1NC(=O)N(Cc1ccccc1)C1CC23CCCCC2(CC(=O)C3)C1` (stereo not drawn) [syn-21, 1 -Benzyl-3-(2-methoxy-5-methylphenyl)-1-(syn-11-oxo-[4.3.3]propellan-8-yl)urea] returned a melting point of 168 to 170 °C. Further, at 1 µM the inhibition on σ2 receptor [6] (setting [8]) was 14%. Moreover, at σ1 receptor [5], the “inhibition … σ1” value turned out to be 13%.

For `COc1ccc(C)cc1NC(=O)OC1CC23CCCCC2(C1)CN(Cc1ccccc1)CC3` (stereo not drawn) [anti-5], the Ki on σ1 receptor [3] (propellanamines 4a and azapropellanes 5, already reported) is 82 ± 54 nM. The “inhibition … σ2” value on σ2 receptor [4] is recorded as 8%.

Regarding `FCC[C@@H]1OC2(CCN(Cc3ccccc3)CC2)c2ccccc21` [compound 1, (S)-fluspidine], the Ki on σ2 receptor [1] is 897 nM. For the same molecule, at σ1 receptor [2], the Ki is 2.3 nM and the “selectivity for σ1 against/over the σ2 subtype” value is recorded as 300 fold.

Turning to `COc1ccc(C)cc1NC(=O)OC1CC23CCCCC2(CC(NCCCN)C3)C1` (stereo not drawn) [8-anti-4r, [(8-anti-11-anti and 8-anti-11-syn)-11-[(3-Aminopropyl)amino][4.3.3]propellan-8-yl] N-(2-methoxy-5-methylphenyl)carbamate], the melting point fell in the range of 74 to 76 °C. Also, the inhibition at 1 µM at σ2 receptor [6] (setting [8]) came to 0%. Also, at σ1 receptor [5], at 1 µM the inhibition was 16%.

As to `COc1ccc(CN2CC3CCCC2CN3Cc2ccccc2)cc1` (centres unmarked) [compound 2], the figures for the Ki on σ2 receptor [1] and on σ1 receptor [2] were 39 nM and 0.91 nM, respectively. In addition, the “selectivity for σ1 against/over the σ2 subtype” value in the data set on σ1 receptor [2] is “more than 40 fold”.

`COc1ccc(C)cc1NC(=O)OC1CC23CCCCC2(CC(NCc2ccc(N(C)C)cc2)C3)C1` (stereo not drawn) [8-anti-4h, [(8-anti-11-anti and 8-anti-11-syn)-11-[(4-Dimethylamino)benzylamino]-[4.3.3]propellan-8-yl] N-(2-methoxy-5-methylphenyl)carbamate]: the inhibition at 1 µM at σ2 receptor [6] (setting [8]) and on σ1 receptor [5] was 0% throughout.

`COc1ccc(C)cc1NC(=O)OC1CC23CCCCC2(CC(NCc2ccc(Cl)cc2)C3)C1` (stereo not drawn) [8-anti-4c, [(8-anti-11-anti and 8-anti-11-syn)-11-(4-Chlorobenzylamino)[4.3.3]propellan-8-yl] N-(2-methoxy-5-methylphenyl)carbamate]: the inhibition at 1 µM was found to be 12% at σ2 receptor [6] (setting [8]) and 6% on σ1 receptor [5].

`COc1ccc(C)cc1NC(=O)OC1CC23CCCCC2(CC(NCCCc2ccccc2)C3)C1` (stereo not drawn) [8-anti-4q, [(8-anti-11-anti and 8-anti-11-syn)-11-(3-Phenylpropylamino)[4.3.3]propellan-8-yl] N-(2-methoxy-5-methylphenyl)carbamate]: the inhibition at 1 µM amounted to 0% at σ2 receptor [6] (setting [8]) and 22% at σ1 receptor [5].

For `COc1ccc(C)cc1NC(=O)NC1CC23CCCCC2(CCC3)C1` (stereo not drawn) [23c, 1-(2-Methoxy-5-methylphenyl)-3-(syn- and anti-[4.3.3]propellan-8-yl)urea], the melting point lay in the range of 215 to 220 °C. This molecule had an inhibition at 1 µM on σ2 receptor [6] (setting [8]) of 0%. On σ1 receptor [5], the inhibition at 1 µM came out at 0%.

`COc1ccc(NC2CC34CCCCC3(C2)CC(OC(=O)Nc2cc(C)ccc2OC)C4)cc1` (stereo not drawn) [8-anti-4m, [(8-anti-11-anti and 8-anti-11-syn)-11-(4-Methoxyphenylamino)[4.3.3]propellan-8-yl] N-(2-methoxy-5-methylphenyl)carbamate]: the inhibition at 1 µM is 0% at σ2 receptor [6] (setting [8]) and 11% on σ1 receptor [5].

`COc1ccc(C)cc1NC(=O)OC1CC23CCCCC2(CC(NCCc2ccccc2)C3)C1` (stereo not drawn) [8-anti-4p, [(8-anti-11-anti and 8-anti-11-syn)-11-(Phenethylamino)[4.3.3]propellan-8-yl] N-(2-methoxy-5-methylphenyl)carbamate] came in with an inhibition at 1 µM at σ2 receptor [6] (setting [8]) of 0%. The inhibitory constant (Ki) on σ1 receptor [5] (setting [9]) came out at 668 nM.

The molecule `c1ccc2c(CCNC3CC45CCCCC4(CCC5)C3)c[nH]c2c1` (stereo not drawn) [compound 15, syn- and anti-N-[2-(Indol-3-yl)ethyl]-[4.3.3]propellan-8-amine] gave a melting point of 109 to 111 °C. This molecule yielded a Ki on σ2 receptor [6] of 974 nM. For the same molecule, the inhibition constant (Ki) at σ1 receptor [5] (Ki (nM) σ1) is 598 nM.
